The values below come from patent publication US8895585B2, “Nicotinamide derivative or salt thereof” (FUJIFILM Corporation, priority 2010, dated 2014).

Experiment [1] addresses T1, glutathione S-transferase (GST)-fused full-length human Syk protein (Homo sapiens, UniProt P43405).
T1 construct: (GST)-fused full-length human Syk protein; GST (glutathione S-transferase); purchased Carna Biosciences
The experiment in a line: Syk enzyme assay. It is filed as biochemical. The settings on record: Syk enzyme assay, Test Example 1; read-out: IC50 of Syk-inhibitory activity. The procedure, abridged: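 GST-tagged full-length human Syk (baculovirus) preincubated with compound 15 min at room temperature (pH 7.0, 10 mM MgCl2), then reacted 40 min with 0.4 μM biotinylated peptide substrate and 27 μM ATP (final). Phosphorylation read by HTRF (615/665 nm) after EDTA stop; IC50 reported.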

The next experiment relates to THP-1 cells. The experiment is described as follows: TNFα generation assay. Type of experiment: cell-based, human. The settings on record: Table 22, read-out: IC50 in TNFα generation assay. The procedure, abridged:
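Secreted TNFα in supernatant quantified by ELISA or AlphaLISA after 7 h culture on human IgG-coated wells (10 μg/ml coating). Cells were IFN-γ-differentiated THP-1 (10 ng/ml, 2 days), exposed to compound for 30 min at room temperature before plating.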

The mark [2] stands for this setting: Homo sapiens, THP-1, THP-1 cells.

Where two headings read alike, the source gives them in different places.

With `CC[C@@H](Nc1nc(Nc2ccc3cccnc3c2)c(C(N)=O)cc1F)[C@H](C)N` [Example 006-261, 6-(((2S,3R)-2-aminopentan-3-yl)amino)-5-fluoro-2-((quinolin-7-yl)amino)nicotinamide], the IC50 in experiment [1] is less than 10 nM; in the experiment with THP-1 cells (setting [2]) it was less than 65 nM.

`NC(=O)c1cc(F)c(N[C@@H]2CCCC[C@@H]2N)nc1Nc1cnc2ccncc2c1` [Example 004-003]: the IC50 in experiment [1] was 10 to 50 nM; in the experiment with THP-1 cells (setting [2]), less than 65 nM.

As for `NC(=O)c1cc(F)c(N[C@@H]2CCCC[C@@H]2N)nc1Nc1cncc(-c2ccoc2)c1` (relative stereo) [Example 004-078, 6-(cis-2-aminocyclohexylamino)-5-fluoro-2-((5-(furan-3-yl)pyridin-3-yl)amino)-nicotinamide], the IC50 in experiment [1] is less than 10 nM; in the experiment on THP-1 cells (setting [2]), 65 to 130 nM.

`C[C@H](CN)Nc1nc(Nc2ccc3c(cnn3C)c2)c(C(N)=O)cc1F` [Example 006-102, (R)-6-((1-aminopropan-2-yl)amino)-5-fluoro-2-((1-methyl-1H-indazol-5-yl)amino)nicotinamide]: the IC50 in experiment [1] was 10 to 50 nM; with THP-1 cells (setting [2]) it was 65 to 130 nM.

As to `NC(=O)c1cc(F)c(N[C@@H]2CCCC[C@@H]2N)nc1Nc1cc(N)c2ncccc2c1` (relative stereo) [Example 41-1, 6-(cis-2-aminocyclohexylamino)-2-((8-aminoquinolin-6-yl)amino)-5-fluoronicotinamide], the values for the IC50 (in experiment [1]; with THP-1 cells (setting [2])) were less than 10 nM and 130 to 200 nM, respectively.

For the molecule `COCCOc1cc(Nc2nc(N[C@H](CC(C)C)[C@H](C)N)c(F)cc2C(N)=O)ccn1` [Example 006-411, 6-(((2S,3R)-2-amino-5-methylhexan-3-yl)amino)-5-fluoro-2-((2-(2-methoxyethoxy)pyridin-4-yl)amino)nicotinamide], the IC50 in experiment [1] was less than 10 nM; in the experiment on THP-1 cells (setting [2]), 130 to 200 nM.

As to `CC[C@@H](Nc1nc(Nc2ccc3nccnc3c2)c(C(N)=O)cc1F)[C@H](C)N` [Example 006-260, 6-(((2S,3R)-2-aminopentan-3-yl)amino)-5-fluoro-2-((quinoxalin-6-yl)amino)nicotinamide], the IC50 in experiment [1] was less than 10 nM; with THP-1 cells (setting [2]), less than 65 nM.

`CC[C@@H](Nc1nc(Nc2ccc3cnn(C)c3c2)c(C(N)=O)cc1F)[C@H](C)N` [Example 006-358, 6-(((2S,3R)-2-aminopentan-3-yl)amino)-5-fluoro-2-((1-methyl-1H-indazol-6-yl)amino)nicotinamide]: the IC50 in experiment [1] was less than 10 nM; in the experiment with THP-1 cells (setting [2]), less than 65 nM.

For the molecule `NC(=O)c1cc(F)c(N[C@@H](C(N)=O)c2ccccc2)nc1Nc1cnc2ccccc2c1` [Example 012-013], the IC50 fell in the range of 10 to 50 nM in experiment [1] and 130 to 200 nM in the experiment on THP-1 cells (setting [2]).

Regarding `COc1cccc(-c2cncc(Nc3nc(N[C@@H](CN)CC(C)C)c(F)cc3C(N)=O)c2)c1F` [Example 006-318, (R)-6-((1-amino-4-methylpentan-2-yl)amino)-5-fluoro-2-((5-(2-fluoro-3-methoxyphenyl)pyridin-3-yl)amino)nicotinamide], the IC50 in experiment [1] is 10 to 50 nM; with THP-1 cells (setting [2]) it was 130 to 200 nM.

Regarding `CCn1ncc2cc(Nc3nc(N[C@H](c4ccccc4)[C@H](C)N)c(F)cc3C(N)=O)ccc21` [Example 006-516, 6-(((1R,2S)-2-amino-1-phenylpropyl)amino)-2-((1-ethyl-1H-indazol-5-yl)amino)-5-fluoronicotinamide], the figures for the IC50 (in experiment [1]; in the experiment on THP-1 cells (setting [2])) were less than 10 nM and less than 65 nM, respectively.

Regarding `NC(=O)c1cc(F)c(N[C@@H]2CCCC[C@@H]2N)nc1Nc1cc(F)cc2[nH]ccc12` (relative stereo) [Example 004-082, 6-(cis-2-aminocyclohexylamino)-5-fluoro-2-((6-fluoro-1H-indol-4-yl)amino)nicotinamide], the IC50 was less than 10 nM in experiment [1] and 130 to 200 nM in the experiment on THP-1 cells (setting [2]).

Turning to `COCc1cncc(Nc2nc(N[C@@H]3CCCC[C@@H]3N)c(F)cc2C(N)=O)c1` (relative stereo) [Example 004-188, 6-(cis-2-aminocyclohexylamino)-5-fluoro-2-((5-(methoxymethyl)pyridin-3-yl)amino)nicotinamide], the IC50 fell in the range of 10 to 50 nM in experiment [1] and 65 to 130 nM in the experiment on THP-1 cells (setting [2]).

Turning to `NC(=O)c1cc(F)c(NC2CCCCC2N)nc1Nc1ccc2c(c1)c(F)nn2CCF` (stereo not shown) [Example 002-204], the figures for the IC50 (in experiment [1]; in the experiment with THP-1 cells (setting [2])) were less than 10 nM and 65 to 130 nM, respectively.

With `Cc1ncc(Nc2nc(N[C@H](C3CCC3)[C@H](C)N)c(F)cc2C(N)=O)cc1-n1nccn1` [Example 006-598, 6-(((1R,2S)-2-amino-1-cyclobutylpropyl)amino)-5-fluoro-2-((6-methyl-5-(2H-1,2,3-triazol-2-yl)pyridin-3-yl)amino)nicotinamide], the IC50 in experiment [1] is less than 10 nM; in the experiment with THP-1 cells (setting [2]) it was 130 to 200 nM.

Take `COc1ccc2ncc(Nc3nc(N[C@@H](CN)CC(C)C)c(F)cc3C(N)=O)cc2c1` [Example 006-232, (R)-6-((1-amino-4-methylpentan-2-yl)amino)-5-fluoro-2-((6-methoxyquinolin-3-yl)amino)nicotinamide]: the IC50 in experiment [1] is less than 10 nM; with THP-1 cells (setting [2]), 130 to 200 nM.

In the case of `C=C(C)C[C@@H](Nc1nc(Nc2ccc3c(cnn3CC)c2)c(C(N)=O)cc1F)[C@H](C)N` [Example 006-397, 6-(((2S,3R)-2-amino-5-methylhex-5-en-3-yl)amino)-2-((1-ethyl-1H-indazol-5-yl)amino)-5-fluoronicotinamide], the IC50 in experiment [1] was less than 10 nM; in the experiment with THP-1 cells (setting [2]), less than 65 nM.

On to `Cc1nn(CC(F)F)c2ccc(Nc3nc(N[C@H](CC4CC4)[C@H](C)N)c(F)cc3C(N)=O)cc12` [Example 006-445, 6-(((2R,3S)-3-amino-1-cyclopropylbutan-2-yl)amino)-2-((1-(2,2-difluoroethyl)-3-methyl-1H-indazol-5-yl)amino)-5-fluoronicotinamide], for which the results for the IC50 (in experiment [1]; in the experiment on THP-1 cells (setting [2])) were less than 10 nM and 65 to 130 nM, respectively.

For `COc1nccc(Nc2nc(N[C@@H]3CCCC[C@@H]3N)c(F)cc2C(N)=O)c1F` [Example 006-432, 6-(((1R,2S)-2-aminocyclohexyl)amino)-5-fluoro-2-((3-fluoro-2-methoxypyridin-4-yl)amino)nicotinamide], the IC50 in experiment [1] is 10 to 50 nM; in the experiment with THP-1 cells (setting [2]) it was 65 to 130 nM.

As for `CCOc1cc(Nc2nc(NC3CCCCC3N)c(F)cc2C(N)=O)ccn1` (stereo not shown) [Example 002-060], the IC50 was less than 10 nM in experiment [1] and 65 to 130 nM with THP-1 cells (setting [2]).

Turning to `NC(=O)c1cc(F)c(N[C@@H]2CCCC[C@@H]2N)nc1Nc1cc(-n2cncn2)nc2[nH]ccc12` (relative stereo) [Example 004-069, 2-((6-(1H-1,2,4-triazol-1-yl)-1H-pyrrolo[2,3-b]pyridin-4-yl)amino)-6-(cis-2-aminocyclohexylamino)-5-fluoronicotinamide], the IC50 in experiment [1] was less than 10 nM; in the experiment with THP-1 cells (setting [2]) it was 65 to 130 nM.

Regarding `NC(=O)c1cc(F)c(N[C@@H]2CCCC[C@@H]2N)nc1Nc1ccnc(-n2nccn2)c1` [Example 006-146, 2-((2-(2H-1,2,3-triazol-2-yl)pyridin-4-yl)amino)-6-(((1R,2S)-2-aminocyclohexyl)amino)-5-fluoronicotinamide], the IC50 in experiment [1] was less than 10 nM; with THP-1 cells (THP-1 cells), less than 65 nM.

`CC(C)C[C@H](CN)Nc1nc(Nc2ccc3cccnc3c2)c(C(N)=O)cc1F` [Example 006-228, (R)-6-((1-amino-4-methylpentan-2-yl)amino)-5-fluoro-2-((quinolin-7-yl)amino)nicotinamide]: the IC50 in experiment [1] was less than 10 nM; with THP-1 cells (setting [2]), 130 to 200 nM.

As to `CC[C@H](N)[C@@H](CC(C)C)Nc1nc(Nc2ccc3ncccc3c2)c(C(N)=O)cc1F` [Example 006-201, 6-(((4R,5S)-5-amino-2-methylheptan-4-yl)amino)-5-fluoro-2-((quinolin-6-yl)amino)nicotinamide], the values for the IC50 (in experiment [1]; in the experiment on THP-1 cells (setting [2])) were less than 10 nM and 130 to 200 nM, respectively.

Take `CCn1ncc2cc(Nc3nc(N[C@H](C)[C@H](C)N)c(F)cc3C(N)=O)ccc21` (racemic) [Example 006-184, 6-(((2R,3S)-3-aminobutan-2-yl)amino)-2-((1-ethyl-1H-indazol-5-yl)amino)-5-fluoronicotinamide 6-(((2S,3R)-3-aminobutan-2-yl)amino)-2-((1-ethyl-1H-indazol-5-yl)amino)-5-fluoronicotinamide]: the IC50 was less than 10 nM in experiment [1] and 65 to 130 nM in the experiment with THP-1 cells (setting [2]).

With `CC[C@@H](Nc1nc(Nc2ccnc(-c3cccc(OC)c3)c2)c(C(N)=O)cc1F)[C@H](C)N` [Example 006-330, 6-(((2S,3R)-2-aminopentan-3-yl)amino)-5-fluoro-2-((2-(3-methoxyphenyl)pyridin-4-yl)amino)nicotinamide], the figures for the IC50 (in experiment [1]; in the experiment with THP-1 cells (setting [2])) were less than 10 nM and less than 65 nM, respectively.

On to `CCn1nc(C2CC2)c2cc(Nc3nc(N[C@@H]4CCCC[C@@H]4N)c(F)cc3C(N)=O)ccc21` [Example 006-548, 6-(((1R,2S)-2-aminocyclohexyl)amino)-2-((3-cyclopropyl-1-ethyl-1H-indazol-5-yl)amino)-5-fluoronicotinamide], for which the IC50 in experiment [1] is less than 10 nM; in the experiment with THP-1 cells (setting [2]), 65 to 130 nM.

With `NC(=O)c1cc(F)c(N[C@@H]2CCCC[C@@H]2N)nc1Nc1cnc2c(NCC3CC3)cccc2c1` [Example 004-134], the IC50 lay in the range of 10 to 50 nM in experiment [1] and 130 to 200 nM in the experiment with THP-1 cells (setting [2]).

With `CCn1ncc2cc(Nc3nc(N[C@H](c4ccc(F)cc4)[C@H](C)N)c(F)cc3C(N)=O)ccc21` [Example 006-555, 6-(((1R,2S)-2-amino-1-(4-fluorophenyl)propyl)amino)-2-((1-ethyl-1H-indazol-5-yl)amino)-5-fluoronicotinamide], the IC50 is less than 10 nM in experiment [1] and 65 to 130 nM with THP-1 cells (setting [2]).
